Reference: ChEMBL document CHEMBL5442175, “EUbOPEN Chemogenomics Library - PDSP Secondary Binding” (2024)

What was measured:
[1] = biological target: 5-hydroxytryptamine receptor 1B (Homo sapiens, UniProt P28222); assay: (§1) PDSP Secondary Binding target: HTR1B - Compounds are tested at 10 uM concentration, plate are incubated at room temperature in the dark for 90 minutes. Reaction are stopped by vacuum filtration onto 0.3% polyethyleneimine soaked filter mats using Filtermate harvester. Scintillation cocktail is then melted onto microwave-dried filters on a hot plate and the radio activity is counted in Microbia counter.
[2] = biological target: 5-hydroxytryptamine receptor 1D (Homo sapiens, UniProt P28221); assay: as §1, with “HTR1D” for “HTR1B”
[3] = biological target: 5-hydroxytryptamine receptor 7 (Homo sapiens, UniProt P34969); assay: as §1, with “HTR7” for “HTR1B”
[4] = biological target: Sodium-dependent noradrenaline transporter (Homo sapiens, UniProt P23975); assay: as §1, with “SLC6A2” for “HTR1B”
[5] = biological target: Sodium-dependent dopamine transporter (Homo sapiens, UniProt Q01959); assay: as §1, with “SLC6A3” for “HTR1B”
[6] = biological target: Sigma intracellular receptor 2 (Homo sapiens, UniProt Q5BJF2); assay: as §1, with “TMEM97” for “HTR1B”
[7] = biological target: Sigma non-opioid intracellular receptor 1 (Homo sapiens, UniProt Q99720); assay: as §1, with “SIGMAR1” for “HTR1B”
[8] = biological target: T1, Alpha-1B adrenergic receptor (Homo sapiens, UniProt P35368); assay: as §1, with “ADRA1B” for “HTR1B”
T1 sequence (P35368 whole entry): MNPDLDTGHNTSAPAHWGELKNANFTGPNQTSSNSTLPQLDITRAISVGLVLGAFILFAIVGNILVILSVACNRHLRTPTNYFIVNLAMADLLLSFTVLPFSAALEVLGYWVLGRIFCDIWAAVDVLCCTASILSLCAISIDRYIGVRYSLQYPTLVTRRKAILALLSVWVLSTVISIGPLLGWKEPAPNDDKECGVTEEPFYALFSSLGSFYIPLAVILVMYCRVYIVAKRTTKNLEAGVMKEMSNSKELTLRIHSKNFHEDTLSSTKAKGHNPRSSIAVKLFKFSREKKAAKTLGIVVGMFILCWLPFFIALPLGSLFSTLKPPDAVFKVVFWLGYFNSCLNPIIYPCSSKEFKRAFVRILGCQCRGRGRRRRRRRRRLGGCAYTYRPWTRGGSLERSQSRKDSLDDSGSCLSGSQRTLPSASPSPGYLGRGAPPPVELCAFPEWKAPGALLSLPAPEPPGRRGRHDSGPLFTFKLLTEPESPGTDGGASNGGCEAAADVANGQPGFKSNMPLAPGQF

[9] = biological target: T2, Alpha-2A adrenergic receptor (Homo sapiens, UniProt P08913); assay: as §1, with “ADRA2A” for “HTR1B”
T2 sequence (P08913 whole entry): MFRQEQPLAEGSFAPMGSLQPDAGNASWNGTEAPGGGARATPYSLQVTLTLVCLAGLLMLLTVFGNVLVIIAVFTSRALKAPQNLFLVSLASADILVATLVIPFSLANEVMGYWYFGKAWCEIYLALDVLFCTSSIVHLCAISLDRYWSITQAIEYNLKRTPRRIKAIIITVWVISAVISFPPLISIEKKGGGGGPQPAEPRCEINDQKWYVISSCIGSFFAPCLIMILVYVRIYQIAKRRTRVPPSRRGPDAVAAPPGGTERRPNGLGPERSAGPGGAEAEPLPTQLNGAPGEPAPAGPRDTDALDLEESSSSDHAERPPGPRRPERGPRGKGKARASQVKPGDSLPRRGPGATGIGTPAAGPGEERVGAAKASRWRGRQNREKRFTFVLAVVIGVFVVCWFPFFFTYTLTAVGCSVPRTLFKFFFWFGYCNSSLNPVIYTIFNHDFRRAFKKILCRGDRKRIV

[10] = biological target: Histamine H3 receptor (Homo sapiens, UniProt Q9Y5N1); assay: as §1, with “HRH3” for “HTR1B”
[11] = biological target: T3, Alpha-1A adrenergic receptor (Homo sapiens, UniProt P35348); assay: as §1, with “ADRA1A” for “HTR1B”
T3 sequence (P35348 whole entry): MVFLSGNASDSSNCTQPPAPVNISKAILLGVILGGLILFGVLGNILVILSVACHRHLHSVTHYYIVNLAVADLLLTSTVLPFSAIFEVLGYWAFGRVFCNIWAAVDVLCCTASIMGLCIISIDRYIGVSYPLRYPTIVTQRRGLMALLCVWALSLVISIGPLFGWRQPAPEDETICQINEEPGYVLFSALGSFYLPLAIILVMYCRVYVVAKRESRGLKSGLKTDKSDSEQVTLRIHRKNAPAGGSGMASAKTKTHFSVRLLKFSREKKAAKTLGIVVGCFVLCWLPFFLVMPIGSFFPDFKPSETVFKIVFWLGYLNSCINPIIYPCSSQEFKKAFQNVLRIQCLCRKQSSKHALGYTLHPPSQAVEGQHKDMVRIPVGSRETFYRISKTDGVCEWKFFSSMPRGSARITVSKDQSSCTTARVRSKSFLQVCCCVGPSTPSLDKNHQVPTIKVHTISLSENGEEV

[12] = biological target: Histamine H1 receptor (Homo sapiens, UniProt P35367); assay: as §1, with “HRH1” for “HTR1B”
[13] = biological target: 5-hydroxytryptamine receptor 2A (Homo sapiens, UniProt P28223); assay: as §1, with “HTR2A” for “HTR1B”
[14] = biological target: T4, 5-hydroxytryptamine receptor 3A (Homo sapiens, UniProt P46098); assay: as §1, with “HTR3A” for “HTR1B”
T4 sequence (P46098 whole entry): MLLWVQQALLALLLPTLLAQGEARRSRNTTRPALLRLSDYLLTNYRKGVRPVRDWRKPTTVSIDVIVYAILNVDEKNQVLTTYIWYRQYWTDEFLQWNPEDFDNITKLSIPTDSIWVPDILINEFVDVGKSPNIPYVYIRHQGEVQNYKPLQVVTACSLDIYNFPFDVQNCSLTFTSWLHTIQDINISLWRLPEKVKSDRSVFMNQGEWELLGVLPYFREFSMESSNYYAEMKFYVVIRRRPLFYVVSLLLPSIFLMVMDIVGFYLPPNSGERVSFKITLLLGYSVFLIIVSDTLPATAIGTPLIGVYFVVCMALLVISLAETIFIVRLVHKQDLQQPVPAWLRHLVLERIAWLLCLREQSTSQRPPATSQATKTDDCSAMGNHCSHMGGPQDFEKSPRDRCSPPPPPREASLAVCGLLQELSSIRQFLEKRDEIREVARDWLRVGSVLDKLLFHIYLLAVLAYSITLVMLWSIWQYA

[15] = biological target: T5, Muscarinic acetylcholine receptor M5 (Homo sapiens, UniProt P08912); assay: as §1, with “CHRM5” for “HTR1B”
T5 sequence (P08912 whole entry): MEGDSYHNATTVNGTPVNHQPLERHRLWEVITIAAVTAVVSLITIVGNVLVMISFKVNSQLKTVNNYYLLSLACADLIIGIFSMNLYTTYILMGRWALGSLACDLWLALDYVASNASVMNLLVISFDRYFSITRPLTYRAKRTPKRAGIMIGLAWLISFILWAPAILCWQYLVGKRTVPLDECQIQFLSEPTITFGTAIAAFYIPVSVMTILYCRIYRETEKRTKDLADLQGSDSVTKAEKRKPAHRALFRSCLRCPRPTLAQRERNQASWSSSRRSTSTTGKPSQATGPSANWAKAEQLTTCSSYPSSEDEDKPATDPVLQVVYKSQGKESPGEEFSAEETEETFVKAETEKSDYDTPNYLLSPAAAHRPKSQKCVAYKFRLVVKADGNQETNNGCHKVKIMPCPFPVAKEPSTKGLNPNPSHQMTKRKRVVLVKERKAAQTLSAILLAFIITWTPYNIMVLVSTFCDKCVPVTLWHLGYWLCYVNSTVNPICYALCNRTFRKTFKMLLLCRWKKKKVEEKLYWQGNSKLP

[16] = biological target: Kappa-type opioid receptor (Homo sapiens, UniProt P41145); assay: as §1, with “OPRK1” for “HTR1B”
[17] = biological target: T6, Alpha-2C adrenergic receptor (Homo sapiens, UniProt P18825); assay: as §1, with “ADRA2C” for “HTR1B”
T6 sequence (P18825 whole entry): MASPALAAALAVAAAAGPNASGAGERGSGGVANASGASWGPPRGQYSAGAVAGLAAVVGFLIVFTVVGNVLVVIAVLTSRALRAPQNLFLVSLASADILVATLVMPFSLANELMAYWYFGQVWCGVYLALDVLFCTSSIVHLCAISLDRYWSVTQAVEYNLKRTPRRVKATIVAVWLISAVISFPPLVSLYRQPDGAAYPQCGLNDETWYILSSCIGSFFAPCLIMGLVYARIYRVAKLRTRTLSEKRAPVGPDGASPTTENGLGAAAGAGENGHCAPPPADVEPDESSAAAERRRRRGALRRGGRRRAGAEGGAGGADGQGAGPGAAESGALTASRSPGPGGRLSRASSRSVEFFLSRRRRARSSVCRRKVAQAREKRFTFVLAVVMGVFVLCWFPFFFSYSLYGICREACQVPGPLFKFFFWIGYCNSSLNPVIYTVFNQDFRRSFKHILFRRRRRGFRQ

[18] = biological target: T7, Muscarinic acetylcholine receptor M2 (Homo sapiens, UniProt P08172); assay: as §1, with “CHRM2” for “HTR1B”
T7 sequence (P08172 whole entry): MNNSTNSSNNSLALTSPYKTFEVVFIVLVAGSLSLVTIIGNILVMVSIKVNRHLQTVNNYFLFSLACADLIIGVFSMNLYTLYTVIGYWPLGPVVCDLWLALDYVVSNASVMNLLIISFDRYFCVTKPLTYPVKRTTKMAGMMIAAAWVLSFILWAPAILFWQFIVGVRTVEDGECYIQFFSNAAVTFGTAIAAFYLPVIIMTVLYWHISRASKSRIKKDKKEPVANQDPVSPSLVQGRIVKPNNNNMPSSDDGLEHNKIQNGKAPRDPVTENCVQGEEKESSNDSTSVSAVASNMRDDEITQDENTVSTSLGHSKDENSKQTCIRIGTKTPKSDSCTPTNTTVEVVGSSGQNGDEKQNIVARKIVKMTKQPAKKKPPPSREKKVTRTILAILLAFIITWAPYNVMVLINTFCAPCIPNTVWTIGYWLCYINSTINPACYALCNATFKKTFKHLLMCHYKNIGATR

[19] = biological target: T8, Muscarinic acetylcholine receptor M1 (Homo sapiens, UniProt P11229); assay: as §1, with “CHRM1” for “HTR1B”
T8 sequence (P11229 whole entry): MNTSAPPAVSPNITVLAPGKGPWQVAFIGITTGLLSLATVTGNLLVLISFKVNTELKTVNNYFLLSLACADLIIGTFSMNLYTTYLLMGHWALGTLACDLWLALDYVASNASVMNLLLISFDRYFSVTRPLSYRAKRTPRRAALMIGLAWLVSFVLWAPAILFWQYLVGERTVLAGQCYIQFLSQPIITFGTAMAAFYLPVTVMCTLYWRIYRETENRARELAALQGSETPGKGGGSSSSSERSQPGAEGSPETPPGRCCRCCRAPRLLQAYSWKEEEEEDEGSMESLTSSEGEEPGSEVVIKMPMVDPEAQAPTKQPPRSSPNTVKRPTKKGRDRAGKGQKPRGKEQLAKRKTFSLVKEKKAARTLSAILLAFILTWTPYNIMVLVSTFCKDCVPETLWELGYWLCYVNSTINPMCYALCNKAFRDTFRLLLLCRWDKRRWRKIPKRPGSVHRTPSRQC

Chain of Histamine H3 receptor (Q9Y5N1 whole entry): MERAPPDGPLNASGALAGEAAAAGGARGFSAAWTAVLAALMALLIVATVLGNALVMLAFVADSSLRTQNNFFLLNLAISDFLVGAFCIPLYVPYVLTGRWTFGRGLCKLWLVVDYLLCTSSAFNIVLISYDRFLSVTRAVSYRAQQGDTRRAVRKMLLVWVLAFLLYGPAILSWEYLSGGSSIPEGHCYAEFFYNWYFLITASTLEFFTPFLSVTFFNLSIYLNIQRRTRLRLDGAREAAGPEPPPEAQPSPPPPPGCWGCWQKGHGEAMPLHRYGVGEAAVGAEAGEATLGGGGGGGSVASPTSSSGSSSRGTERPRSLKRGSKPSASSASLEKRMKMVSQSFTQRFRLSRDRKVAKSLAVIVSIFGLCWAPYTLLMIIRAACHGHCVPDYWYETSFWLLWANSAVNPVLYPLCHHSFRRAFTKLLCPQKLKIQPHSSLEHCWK
Chain of Sigma non-opioid intracellular receptor 1 (Q99720 whole entry): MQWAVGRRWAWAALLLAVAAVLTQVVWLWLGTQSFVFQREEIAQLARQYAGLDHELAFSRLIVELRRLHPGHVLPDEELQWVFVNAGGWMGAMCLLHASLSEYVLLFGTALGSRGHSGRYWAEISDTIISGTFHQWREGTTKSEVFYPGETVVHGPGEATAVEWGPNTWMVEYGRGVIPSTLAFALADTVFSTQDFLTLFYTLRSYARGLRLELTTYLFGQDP
Chain of Sigma intracellular receptor 2 (Q5BJF2 whole entry): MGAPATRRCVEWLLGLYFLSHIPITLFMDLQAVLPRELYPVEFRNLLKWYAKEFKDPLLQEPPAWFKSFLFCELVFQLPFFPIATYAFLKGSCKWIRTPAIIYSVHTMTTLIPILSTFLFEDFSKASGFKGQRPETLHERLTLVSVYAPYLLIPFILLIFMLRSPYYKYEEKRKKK
Chain of Sodium-dependent dopamine transporter (Q01959 whole entry): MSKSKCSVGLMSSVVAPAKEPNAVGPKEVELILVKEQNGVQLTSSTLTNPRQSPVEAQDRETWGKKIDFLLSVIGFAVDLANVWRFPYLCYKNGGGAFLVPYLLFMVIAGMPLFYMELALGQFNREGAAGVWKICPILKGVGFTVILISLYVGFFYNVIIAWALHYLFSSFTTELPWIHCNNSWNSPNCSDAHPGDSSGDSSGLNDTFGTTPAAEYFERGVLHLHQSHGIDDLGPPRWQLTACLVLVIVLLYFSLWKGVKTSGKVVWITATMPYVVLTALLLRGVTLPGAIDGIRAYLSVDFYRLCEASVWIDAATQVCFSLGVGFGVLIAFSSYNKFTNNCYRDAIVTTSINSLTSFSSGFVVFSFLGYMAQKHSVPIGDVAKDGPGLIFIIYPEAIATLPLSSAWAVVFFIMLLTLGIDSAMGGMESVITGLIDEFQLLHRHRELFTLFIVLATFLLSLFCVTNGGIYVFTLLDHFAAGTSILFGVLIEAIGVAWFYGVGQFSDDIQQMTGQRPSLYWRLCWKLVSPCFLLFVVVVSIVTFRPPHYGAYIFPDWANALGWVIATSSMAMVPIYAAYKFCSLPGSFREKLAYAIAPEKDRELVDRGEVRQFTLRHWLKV
Chain of 5-hydroxytryptamine receptor 2A (P28223 whole entry): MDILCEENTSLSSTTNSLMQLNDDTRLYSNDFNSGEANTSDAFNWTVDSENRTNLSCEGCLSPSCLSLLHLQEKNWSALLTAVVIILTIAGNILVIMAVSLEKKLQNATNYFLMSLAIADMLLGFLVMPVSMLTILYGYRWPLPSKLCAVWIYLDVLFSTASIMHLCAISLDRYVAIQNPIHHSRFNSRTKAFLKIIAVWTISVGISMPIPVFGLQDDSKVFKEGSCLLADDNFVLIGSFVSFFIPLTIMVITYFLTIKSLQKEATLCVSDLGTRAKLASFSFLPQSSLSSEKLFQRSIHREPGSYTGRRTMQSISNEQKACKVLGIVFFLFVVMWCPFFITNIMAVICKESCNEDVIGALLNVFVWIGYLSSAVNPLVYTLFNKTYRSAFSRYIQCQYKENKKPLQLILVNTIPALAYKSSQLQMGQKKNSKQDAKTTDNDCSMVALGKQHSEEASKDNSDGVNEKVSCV
Chain of Histamine H1 receptor (P35367 whole entry): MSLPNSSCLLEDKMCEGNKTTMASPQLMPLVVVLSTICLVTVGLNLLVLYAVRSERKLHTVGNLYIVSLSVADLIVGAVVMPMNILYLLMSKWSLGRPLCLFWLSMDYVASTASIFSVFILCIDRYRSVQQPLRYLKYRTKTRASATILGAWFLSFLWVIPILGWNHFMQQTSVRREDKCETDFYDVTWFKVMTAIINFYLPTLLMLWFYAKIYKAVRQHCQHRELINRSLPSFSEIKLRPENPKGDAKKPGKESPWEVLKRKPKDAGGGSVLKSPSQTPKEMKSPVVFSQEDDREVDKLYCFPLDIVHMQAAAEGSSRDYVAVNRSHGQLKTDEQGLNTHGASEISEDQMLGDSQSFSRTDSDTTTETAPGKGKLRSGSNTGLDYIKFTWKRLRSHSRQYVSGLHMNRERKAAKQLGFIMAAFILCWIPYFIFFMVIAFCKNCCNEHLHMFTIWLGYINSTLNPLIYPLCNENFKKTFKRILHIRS
Chain of 5-hydroxytryptamine receptor 1D (P28221 whole entry): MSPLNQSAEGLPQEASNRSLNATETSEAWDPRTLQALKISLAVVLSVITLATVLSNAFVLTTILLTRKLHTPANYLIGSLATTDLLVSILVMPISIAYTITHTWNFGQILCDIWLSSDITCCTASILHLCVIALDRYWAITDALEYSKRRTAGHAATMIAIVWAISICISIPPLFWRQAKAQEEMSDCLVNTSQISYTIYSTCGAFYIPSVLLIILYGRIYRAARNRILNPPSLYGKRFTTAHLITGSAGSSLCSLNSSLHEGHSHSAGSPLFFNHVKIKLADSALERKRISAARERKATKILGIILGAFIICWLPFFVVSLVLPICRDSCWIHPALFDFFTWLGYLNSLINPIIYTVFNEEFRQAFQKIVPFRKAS
Chain of Kappa-type opioid receptor (P41145 whole entry): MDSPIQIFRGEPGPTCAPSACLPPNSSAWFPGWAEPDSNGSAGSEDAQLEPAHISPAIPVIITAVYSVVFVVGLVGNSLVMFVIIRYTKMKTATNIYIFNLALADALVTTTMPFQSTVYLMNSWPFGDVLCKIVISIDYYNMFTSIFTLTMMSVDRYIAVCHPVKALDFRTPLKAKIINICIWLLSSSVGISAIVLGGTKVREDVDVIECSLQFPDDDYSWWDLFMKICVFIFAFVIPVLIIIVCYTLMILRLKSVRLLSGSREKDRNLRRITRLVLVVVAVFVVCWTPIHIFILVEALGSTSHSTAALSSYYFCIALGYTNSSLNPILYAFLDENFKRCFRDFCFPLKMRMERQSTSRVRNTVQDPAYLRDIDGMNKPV
Chain of Sodium-dependent noradrenaline transporter (P23975 whole entry): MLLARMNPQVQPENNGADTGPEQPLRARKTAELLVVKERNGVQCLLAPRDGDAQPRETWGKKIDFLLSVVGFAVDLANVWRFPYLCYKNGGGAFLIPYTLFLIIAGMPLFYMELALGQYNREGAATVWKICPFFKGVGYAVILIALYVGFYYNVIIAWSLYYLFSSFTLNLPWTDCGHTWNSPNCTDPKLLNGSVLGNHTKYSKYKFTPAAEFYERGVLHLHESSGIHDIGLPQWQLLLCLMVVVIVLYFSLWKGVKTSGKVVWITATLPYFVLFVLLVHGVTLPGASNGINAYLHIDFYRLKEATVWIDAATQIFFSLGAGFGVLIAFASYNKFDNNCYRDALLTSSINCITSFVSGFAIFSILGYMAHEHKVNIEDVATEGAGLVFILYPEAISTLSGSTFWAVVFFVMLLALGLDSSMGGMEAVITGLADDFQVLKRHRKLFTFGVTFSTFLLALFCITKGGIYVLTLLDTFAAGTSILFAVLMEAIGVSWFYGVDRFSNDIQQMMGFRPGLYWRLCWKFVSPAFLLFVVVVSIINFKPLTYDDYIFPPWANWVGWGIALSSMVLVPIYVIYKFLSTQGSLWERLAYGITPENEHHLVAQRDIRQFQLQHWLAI
Chain of 5-hydroxytryptamine receptor 7 (P34969 whole entry): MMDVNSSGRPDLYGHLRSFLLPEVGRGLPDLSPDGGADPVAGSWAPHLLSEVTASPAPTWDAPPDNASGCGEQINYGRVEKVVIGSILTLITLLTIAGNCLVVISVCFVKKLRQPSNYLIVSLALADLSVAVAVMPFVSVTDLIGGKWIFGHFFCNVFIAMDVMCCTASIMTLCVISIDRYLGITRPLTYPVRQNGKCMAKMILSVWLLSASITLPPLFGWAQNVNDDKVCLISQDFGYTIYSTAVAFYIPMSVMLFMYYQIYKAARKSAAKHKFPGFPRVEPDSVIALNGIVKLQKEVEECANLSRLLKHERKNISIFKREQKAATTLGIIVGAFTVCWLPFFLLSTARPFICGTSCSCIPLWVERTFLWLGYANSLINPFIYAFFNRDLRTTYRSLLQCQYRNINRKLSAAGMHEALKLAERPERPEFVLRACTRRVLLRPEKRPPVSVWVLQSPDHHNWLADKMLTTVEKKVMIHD
Chain of 5-hydroxytryptamine receptor 1B (P28222 whole entry): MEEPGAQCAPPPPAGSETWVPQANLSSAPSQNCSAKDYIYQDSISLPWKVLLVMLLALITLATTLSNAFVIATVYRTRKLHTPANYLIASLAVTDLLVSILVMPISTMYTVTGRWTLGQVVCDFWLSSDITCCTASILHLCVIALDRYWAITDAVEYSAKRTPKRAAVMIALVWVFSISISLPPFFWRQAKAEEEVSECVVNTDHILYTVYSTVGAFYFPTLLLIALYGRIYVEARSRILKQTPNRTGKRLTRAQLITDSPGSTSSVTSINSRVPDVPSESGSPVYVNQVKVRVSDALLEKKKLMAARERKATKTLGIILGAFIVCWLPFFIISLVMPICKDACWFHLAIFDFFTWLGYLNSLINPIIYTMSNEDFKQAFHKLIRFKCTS

Ki [10] | Ki [15] | Ki [16] | Ki [17] | Ki [18] | Ki [19] | SMILES | Ki [1] | Ki [2] | Ki [3] | Ki [4] | Ki [5] | Ki [6] | Ki [7] | Ki [8] | Ki [9] | Ki [11] | Ki [12] | Ki [13] | Ki [14]
645 nM | 841 nM | 195 nM | 1260 nM | 528 nM |  | COc1ccc2cc(S(=O)(=O)N[C@H](CC(=O)N[C@H](Cc3ccc(CN4[C@H](C)CCC[C@@H]4C)cc3)C(=O)N(C)C(C)C)c3ccc4c(c3)OCO4)ccc2c1 |  |  |  |  |  | 63.4 nM | 495 nM |  |  |  |  |  | 
2.74 nM |  |  | 1780 nM | 1010 nM | 804 nM | c1cc(CN2CCCNCCNCCCNCC2)ccc1CN1CCCNCCNCCCNCC1 [PLERIXAFOR] |  |  |  |  | > 10000 nM |  |  |  |  |  |  |  | 

SMILES | Ki [10] | Ki [15] | Ki [16] | Ki [17] | Ki [18] | Ki [19] | Ki [1] | Ki [2] | Ki [3] | Ki [4] | Ki [5] | Ki [6] | Ki [7] | Ki [8] | Ki [9] | Ki [11] | Ki [12] | Ki [13] | Ki [14]
NCCc1cn(S(=O)(=O)c2c(Cl)nc3sccn23)c2ccccc12 | 1980 nM |  |  |  |  |  | 562 nM | 216 nM | 1430 nM | 1260 nM | 1720 nM | 675 nM | 1320 nM | 4880 nM | 153 nM | 1100 nM | 1650 nM | 111 nM | 662 nM
